# How the values were obtained:
# [1] = system: Staphylococcus aureus Smith; assay: Acute lethal infection in mice; type: in vivo
# Procedure: (§1) The antibacterial efficacy of AA-896-A1 in vivo against acute lethal infection in mice is established by infecting mice with Staphylococcus aureus Smith or Streptococcus pneumoniae. The mice are treated with AA-896-A1.
# Streptococcus pneumoniae = assay: Acute lethal infection in mice; type: in vivo
# Procedure: as §1
# S. aureus GC 1131 = assay: Broth dilution MIC; type: cell-based; conditions: Mueller-Hinton broth, 18 hours at 35° C.
# In short: (§2)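 Compounds are serially diluted in Mueller-Hinton broth, then a bacterial suspension is added. After incubation at 35° C for 18 hours, the lowest inhibitory concentration is recorded as MIC.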
# S. aureus GC 4536 = assay: Broth dilution MIC; type: cell-based; conditions: Mueller-Hinton broth, 18 hours at 35° C.
# In short: as §2
# E. faecalis GC 242 = assay: Broth dilution MIC; type: cell-based; conditions: Mueller-Hinton broth, 18 hours at 35° C.
# In short: as §2
# P. aeruginosa GC 4532 = assay: Broth dilution MIC; type: cell-based; conditions: Mueller-Hinton broth, 18 hours at 35° C.
# In short: as §2
# E. coli GC 3226 = assay: Broth dilution MIC; type: cell-based; conditions: Mueller-Hinton broth, 18 hours at 35° C.
# In short: as §2
# CNS GC 4538 = assay: Broth dilution MIC; type: cell-based; conditions: Mueller-Hinton broth, 18 hours at 35° C.
# In short: as §2
# M. morganii GC 4531 = assay: Broth dilution MIC; type: cell-based; conditions: Mueller-Hinton broth, 18 hours at 35° C.
# In short: as §2
# CNS GC 4547 = assay: Broth dilution MIC; type: cell-based; conditions: Mueller-Hinton broth, 18 hours at 35° C.
# In short: as §2
# E. faecalis GC 842 = assay: Broth dilution MIC; type: cell-based; conditions: Mueller-Hinton broth, 18 hours at 35° C.
# In short: as §2
# P. rettgeri GC 4530 = assay: Broth dilution MIC; type: cell-based; conditions: Mueller-Hinton broth, 18 hours at 35° C.
# In short: as §2
# E. coli GC 2203 = assay: Broth dilution MIC; type: cell-based; conditions: Mueller-Hinton broth, 18 hours at 35° C.
# In short: as §2
# S. marcescens GC 4077 = assay: Broth dilution MIC; type: cell-based; conditions: Mueller-Hinton broth, 18 hours at 35° C.
# In short: as §2
# E. cloacae GC 3783 = assay: Broth dilution MIC; type: cell-based; conditions: Mueller-Hinton broth, 18 hours at 35° C.
# In short: as §2
# E. faecalis GC 4555 = assay: Broth dilution MIC; type: cell-based; conditions: Mueller-Hinton broth, 18 hours at 35° C.
# In short: as §2
# CNS GC 4537 = assay: Broth dilution MIC; type: cell-based; conditions: Mueller-Hinton broth, 18 hours at 35° C.
# In short: as §2
# S. aureus GC 2216 = assay: Broth dilution MIC; type: cell-based; conditions: Mueller-Hinton broth, 18 hours at 35° C.
# In short: as §2
# K. pneumoniae GC 4534 = assay: Broth dilution MIC; type: cell-based; conditions: Mueller-Hinton broth, 18 hours at 35° C.
# In short: as §2
# P. aeruginosa GC 2214 = assay: Broth dilution MIC; type: cell-based; conditions: Mueller-Hinton broth, 18 hours at 35° C.
# In short: as §2
# E. coli GC 4559 = assay: Broth dilution MIC; type: cell-based; conditions: Mueller-Hinton broth, 18 hours at 35° C.
# In short: as §2
# E. coli GC 4560 = assay: Broth dilution MIC; type: cell-based; conditions: Mueller-Hinton broth, 18 hours at 35° C.
# In short: as §2
substance,measurement,setting,value
"5-O-[5-Amino-5-deoxy-2-O-methyl-β-D-ribofuranosyl]-6-[[3-[3-[[13-(carbamimidoylhydroxy-amino)tridecanoyl]oxy]-2-[2-[[(1-carboxy-2-methylpropyl)carbamoyl]amino]-2-(hexahydro-2-iminopyrimidin-4-yl)acetamido]-4-methylpentanamido]propyl]amino]-1,6-dideoxy-1-(3,4-dihydro-2,4-dioxopyrimidin-1(2H)-yl)-β-D-heptofuranuronic acid [AA-896-A1]",ED50 range (95% confidence limit),[1],0.83 to 1.46 mg/kg
same,ED50 range (95% confidence limit),Streptococcus pneumoniae,8.0 to 16.0 mg/kg
same,Antimicrobial Activity (MIC),S. aureus GC 1131,4 µg/mL
same,Antimicrobial Activity (MIC),S. aureus GC 4536,4 µg/mL
same,Antimicrobial Activity (MIC),E. faecalis GC 242,32 µg/mL
same,Antimicrobial Activity (MIC),P. aeruginosa GC 4532,32 µg/mL
same,Antimicrobial Activity (MIC),E. coli GC 3226,8 µg/mL
same,Antimicrobial Activity (MIC),CNS GC 4538,1 µg/mL
same,Antimicrobial Activity (MIC),M. morganii GC 4531,>32 µg/mL
same,Antimicrobial Activity (MIC),CNS GC 4547,4 µg/mL
same,Antimicrobial Activity (MIC),E. faecalis GC 842,32 µg/mL
same,Antimicrobial Activity (MIC),P. rettgeri GC 4530,>32 µg/mL
same,Antimicrobial Activity (MIC),E. coli GC 2203,16 µg/mL
same,Antimicrobial Activity (MIC),S. marcescens GC 4077,>32 µg/mL
same,Antimicrobial Activity (MIC),E. cloacae GC 3783,0.5 µg/mL
same,Antimicrobial Activity (MIC),E. faecalis GC 4555,16 µg/mL
same,Antimicrobial Activity (MIC),CNS GC 4537,2 µg/mL
same,Antimicrobial Activity (MIC),S. aureus GC 2216,8 µg/mL
same,Antimicrobial Activity (MIC),K. pneumoniae GC 4534,>32 µg/mL
same,Antimicrobial Activity (MIC),P. aeruginosa GC 2214,16 µg/mL
same,Antimicrobial Activity (MIC),E. coli GC 4559,32 µg/mL
same,Antimicrobial Activity (MIC),E. coli GC 4560,<=0.03 μg/ml

# — US7078195B2, “Antibiotics AA-896” (Wyeth Holdings Corporation, priority 2001, dated 2006)
